# Measurements taken from patent publication US8173682B2, “Substituted pyridones as inhibitors of poly(ADP-ribose) polymerase (PARP)” (Aventis Pharmaceuticals Inc., priority 2004, dated 2012).
# Structures can show the parent of a compound that is named as a salt.
# Molecular target: T1, recombinant human PARP (PARP1) (Homo sapiens, UniProt P09874)
# T1 construct: Full length human PARP (PARP1) is assembled from PCR fragments; His6 tag with TEV site, from the pFastBac-HTb vector (own knowledge of the vector); made in house; host or cells: insect cells, baculovirus (Bac-to-Bac, Gibco-BRL)
# Assay: PARP enzyme assay, Method A (radioactivity or 'ELISA' enzyme assay with partially purified enzyme)
# Format: biochemical
# Details: recombinant human PARP preparation, radioactive or ELISA enzyme assay
# From the text: Two different methods are employed in determining the activity of the compounds of this invention in inhibiting the activity of PARP enzyme, designated as Method A and Method B respectively as set forth below.
# Method A: Cloning and Expression, and Partial Purification of Recombinant Human PARP:
# Full length human PARP (PARP1) is assembled from PCR fragments of a clone from a human brain cDNA library and two Incyte clones. The PARP gene (3046 bp) is sub-cloned into pFastBac-HTb vector to give PARP-pFastBac-HTb and the sequence of this clone is verified. PARP-pFastBac-HTb is expressed to obtain protein using the Bac-to-Bac expression protocol from Gibco-BRL. The recombinant virus generated is used to scale up the material for purification.
# Cell pellets from cell broth of cells expressing PARP are treated with a cocktail of protease inhibitors and lysed by 4 freeze-thaw cycles. The material is suspended in 10 mM HEPES/0.1M NaCl/pH 7.2, stirred, and then centrifuged. A 40%-70% ammonium sulfate cut of protein pellet is obtained from the supernatant. The pellet is solubilized in 10 mM HEPES/pH 7.2 and centrifuged. The supernatant buffer is exchanged to 10 mM HEPES/pH 7.2/0.1M NaCl/25% glycerol by dialysis or with a desalting column. The enzyme preparation is stored at −20° C. until use.
# The compounds of this invention are then tested with this enzyme preparation using either the radioactive enzyme assay or by the “ELISA” enzyme assay as set forth below.
# Radioactivity Enzyme Assay:
# Incorporation of radioactivity from labeled NAD into acid-precipitated protein is measured. The reaction mixture (volume 100 μL or 50 μL, in a test-tube or 96-well plate) contained 100 μg/mL calf thymus DNA (sonicated), 100 μg/mL histones, 100 mM Tris (pH 8.0), 1.0 mM DTT, 10 mM MgCl2, NAD (200 μM, 0.65 microcurie/mL), and varying amounts of enzyme. The reaction was incubated for 10 min at 37° C. or at room temperature for 60 min. The reaction was stopped and protein precipitated by addition of ice-cold trichloroacetic acid (TCA; 10% or 20% aqueous w/v). After brief storage in ice or at 4° C. for 2 hrs, the reaction mixture is filtered under vacuum through a glass fiber filter (2.5 cm disc, or 96-well filter plate). After washing with TCA and ethanol, the filter is dried and counted for tritium CPM after addition of scintillation fluid.
# Incorporation of biotin-NAD into histone coated on plate is measured. A 96-well protein-binding EIA plate is coated with histone and blocked with bovine serum albumin. The reaction mixture (50 μL) contained DNA, buffer, enzyme, (test compound), and 250 μM of NAD and 5 μL of biotin-NAD (Trevigen). After reaction at room temperature the wells are washed and treated with Extravidin (Sigma). After incubation and washing color is developed with the peroxidase substrate TMB (Sigma). The TMB reaction is quenched with 2M sulfuric acid and the absorbance at 450 nm is read.
# T1 sequence (P09874 whole entry, the tested form may be a part): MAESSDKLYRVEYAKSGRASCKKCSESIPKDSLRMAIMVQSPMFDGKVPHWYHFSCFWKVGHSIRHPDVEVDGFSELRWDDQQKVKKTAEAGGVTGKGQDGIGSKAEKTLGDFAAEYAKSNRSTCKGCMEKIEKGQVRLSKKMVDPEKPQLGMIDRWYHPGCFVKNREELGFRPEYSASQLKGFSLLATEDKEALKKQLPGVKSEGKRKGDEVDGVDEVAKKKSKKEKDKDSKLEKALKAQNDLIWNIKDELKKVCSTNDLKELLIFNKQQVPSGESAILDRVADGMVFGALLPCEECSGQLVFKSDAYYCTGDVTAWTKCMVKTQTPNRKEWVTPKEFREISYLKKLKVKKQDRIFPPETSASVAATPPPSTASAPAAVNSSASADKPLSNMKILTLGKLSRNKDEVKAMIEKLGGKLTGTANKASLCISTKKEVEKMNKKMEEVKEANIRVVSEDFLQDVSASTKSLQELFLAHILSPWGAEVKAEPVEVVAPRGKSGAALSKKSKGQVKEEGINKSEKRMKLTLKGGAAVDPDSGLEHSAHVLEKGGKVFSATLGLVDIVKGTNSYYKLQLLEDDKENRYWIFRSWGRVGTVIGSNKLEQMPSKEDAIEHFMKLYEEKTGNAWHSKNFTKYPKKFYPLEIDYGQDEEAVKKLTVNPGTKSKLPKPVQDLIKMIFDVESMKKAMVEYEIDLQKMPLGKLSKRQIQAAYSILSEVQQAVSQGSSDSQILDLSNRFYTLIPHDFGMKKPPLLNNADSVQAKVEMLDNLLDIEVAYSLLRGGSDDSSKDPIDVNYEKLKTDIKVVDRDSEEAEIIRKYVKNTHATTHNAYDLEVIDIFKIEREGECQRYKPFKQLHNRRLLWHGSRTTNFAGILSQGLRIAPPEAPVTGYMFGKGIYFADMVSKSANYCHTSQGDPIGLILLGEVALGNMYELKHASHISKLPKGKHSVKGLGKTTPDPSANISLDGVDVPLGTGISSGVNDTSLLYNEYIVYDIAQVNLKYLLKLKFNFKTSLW
smiles,measurement,value
"CCc1cc(-c2ccc(S(=O)(=O)NC3CCN(CC4CCCCC4)CC3)s2)c(C)[nH]c1=O [Example 75, 5-(5-Ethyl-2-methyl-6-oxo-1,6-dihydropyridin-3-yl)thiophene-2-sulfonic acid (1-cyclohexylmethylpiperidin-4-yl)amide hydrochloride]",IC50,0.3 µM
"CCc1cc(-c2ccc(CN[C@H]3CC[C@H](O)CC3)s2)c(C)[nH]c1=O [Example 125, 3-Ethyl-5-{5-[(4-hydroxycyclohexylamino)methyl]thiophen-2-yl]-6-methyl-1H-pyridin-2-one hydrochloride]",IC50,0.45 µM
"CCc1cc(-n2ccnn2)c(C)[nH]c1=O [Example 13, 3-Ethyl-6-methyl-5-(1,2,3-triazol-1-yl)-1H-pyridin-2-one]",IC50,2.1 µM
"CCc1cc(-c2ccc(CNCc3ccc(Cl)cc3)s2)c(C)[nH]c1=O [Example 168, 5-{5-[(4-chlorobenzylamino)methyl]thiophen-2-y}]-3-ethyl-6-methyl-1H-pyridin-2-one hydrochloride]",IC50,0.4 µM
"CCc1cc(-c2ccc(CN3CCC(N4CCCCC4)CC3)s2)c(C)[nH]c1=O [Example 129, 5-(5-[1,4′]Bipiperidinyl-1′-ylmethyl-thiophen-2-yl)-3-ethyl-6-methyl-1H-pyridin-2-one dihydrochloride]",IC50,1.8 µM
"CCc1cc(-c2ccc(S(=O)(=O)N3CCC(N4CCCC4)CC3)s2)c(C)[nH]c1=O [Example 66, 3-Ethyl-6-methyl-5-{5-[(4-pyrrolidin-1-yl)piperidine-1-sulfonyl]thiophen-2-yl}-1H-pyridin-2-one hydrochloride]",IC50,0.67 µM
"CCc1cc(-c2ccc(S(N)(=O)=O)s2)c(C)[nH]c1=O [Example 111, 5-(5-ethyl-2-methyl-6-oxo-1,6-dihydro-pyridin-3-yl)-thiophene-2-sulfonic acid amide]",IC50,0.21 µM
"CCc1cc(-c2ccc(CN3CCC(O)(c4ccccc4)CC3)s2)c(C)[nH]c1=O [Example 185, 3-Ethyl-5-[5-(4-hydroxy-4-phenylpiperidin-1-ylmethyl)thiophen-2-yl]-6-methyl-1H-pyridin-2-one hydrochloride]",IC50,1.8 µM
"CCc1cc(-c2ccc(S(=O)(=O)NCc3cccnc3)o2)c(C)[nH]c1=O [Example 55, 5-(5-Ethyl-2-methyl-6-oxo-1,6-dihydropyridin-3-yl)furan-2-sulfonic acid (pyridin-3-yl)methylamide hydrochloride]",IC50,0.22 µM
"CCc1cc(-c2ccc(CNCc3ccc(OC)cc3)s2)c(C)[nH]c1=O [Example 169, 5-{5-[(4-Methoxybenzylamino)methyl]thiophen-2-y}]-3-ethyl-6-methyl-1H-pyridin-2-one hydrochloride]",IC50,0.6 µM
"CCc1cc(-c2ncno2)c(C)[nH]c1=O [Example 18, 3-Ethyl-6-methyl-5-(1,2,4-oxadiazol-5-yl)-1H-pyridin-2-one]",IC50,0.65 µM
"CCc1cc(-c2ccc(CN(C)C3CCN(C)C3)s2)c(C)[nH]c1=O (centres unmarked) [Example 133, 5-{5-[Methyl(1-methylpyrrolidin-3-yl)amino-methyl]thiophen-2-yl}-3-ethyl-6-methyl-1H-pyridin-2-one dihydrochloride]",IC50,2.8 µM
"CCc1cc(-c2ccc(S(=O)(=O)NCc3ccc(C)o3)s2)c(C)[nH]c1=O [Example 35, 5-(5-Ethyl-2-methyl-6-oxo-1,6-dihydropyridin-3-yl)thiophene-2-sulfonic acid (5-methylfuran-2-yl)methylamide]",IC50,10.9 µM
"CCc1cc(-c2ccc(CNC3CCCC3)s2)c(C)[nH]c1=O [Example 189, 5-(5-Cyclopentylaminomethylthiophen-2-yl)-3-ethyl-6-methyl-1H-pyridin-2-one hydrochloride]",IC50,0.41 µM
"CCc1cc(-c2ccc(S(=O)(=O)NCCCN(CC)CC)s2)c(C)[nH]c1=O [Example 96, 5-(5-Ethyl-2-methyl-6-oxo-1,6-dihydropyridin-3-yl)-thiophene-2-sulfonic acid (3-diethylaminopropyl)amide hydrochloride]",IC50,0.72 µM
"CCc1cc(-c2ccc(S(=O)(=O)NCc3ccc(N(C)C)nc3)s2)c(C)[nH]c1=O [Example 78, 5-(5-Ethyl-2-methyl-6-oxo-1,6-dihydropyridin-3-yl)thiophene-2-sulfonic acid [(6-dimethylaminopyridin-3-yl)methyl]amide hydrochloride]",IC50,0.2 µM
"CCc1cc(-c2nc(C)nn2C)c(C)[nH]c1=O [Example 20, 5-(2,5-Dimethyl-2H-1,2,4-triazol-3-yl)-3-ethyl-6-methyl-1H-pyridin-2-one]",IC50,1.1 µM
"CCc1cc(-c2ccc(CN)s2)c(C)[nH]c1=O [Example 175, 5-(5-Aminomethylthiophen-2-yl)-3-ethyl-6-methyl-1H-pyridin-2-one hydrochloride]",IC50,0.15 µM
"CCc1cc(-c2ccc(S(=O)(=O)NC3CCN(Cc4ncc[nH]4)CC3)s2)c(C)[nH]c1=O [Example 83, 5-[5-Ethyl-2-methyl-6-oxo-1,6-dihydropyridin-3-yl]thiophene-2-sulfonic acid (1-imidazol-2-yl)methyl(piperidin-4-yl)]amide dihydrochloride]",IC50,2.8 µM
"CCc1cc(-c2ccc(CNCC3CCN(Cc4cc(F)cc(F)c4)CC3)s2)c(C)[nH]c1=O [Example 140, 5-(5-{[1-(3,5-Difluoro-benzyl)-)-piperidin-4-ylmethyl]-amino}methyl-thiophen-2-yl)-3-ethyl-6-methyl-1H-pyridin-2-one hydrochloride]",IC50,0.64 µM
"CCc1cc(-c2ccc(CNCc3ccccc3F)s2)c(C)[nH]c1=O [Example 192, 3-Ethyl-5-{5-[(2-fluoro-benzylamino)-methyl]-thiophen-2-yl}-6-methyl-1H-pyridin-2-one hydrochloride]",IC50,0.26 µM
"CCc1cc(-c2ccc(S(=O)(=O)NCCN3CCOCC3)o2)c(C)[nH]c1=O [Example 47, 5-(5-Ethyl-2-methyl-6-oxo-1,6-dihydropyridin-3-yl)furan-2-sulfonic acid (2-morpholin-4-yl)ethylamide hydrochloride]",IC50,0.89 µM
"CCc1cc(-c2ccc(CNC(C)C(C)C)s2)c(C)[nH]c1=O (centres unmarked) [Example 147, 5-{5-[(3-methylbut-2-ylamino)methyl]thiophen-2-yl}-3-ethyl-6-methyl-1H-pyridin-2-one hydrochloride]",IC50,0.49 µM
"CCc1cc(-c2ccc(S(=O)(=O)N3CCN(c4ccccn4)CC3)s2)c(C)[nH]c1=O [Example 116, 3-Ethyl-6-methyl-5-{5-[(4-pyridin-2-yl)piperazine-1-sulfonyl]thiophen-2-yl}-1H-pyridin-2-one hydrochloride]",IC50,0.45 µM
"CCc1cc(-c2ccc(S(=O)(=O)N3CCN(CCCN4CCCC4)CC3)s2)c(C)[nH]c1=O [Example 62, 3-Ethyl-6-methyl-5-{5-[4-(3-pyrrolidin-1-yl)propylpiperazine-1-sulfonyl]thiophen-2-yl}-1H-pyridin-2-one dihydrochloride]",IC50,0.6 µM
"CCc1cc(-c2ccc(CNCc3cccs3)s2)c(C)[nH]c1=O [Example 170, 3-Ethyl-6-methyl-5-(5-{[(thiophen-2-ylmethyl)amino]methyl}-thiophen-2-yl)-1H-pyridin-2-one hydrochloride]",IC50,0.28 µM
"CCc1cc(-c2ccc(S(=O)(=O)N3CCN(CCO)CC3)s2)c(C)[nH]c1=O [Example 91, 3-Ethyl-5-{5-[4-(2-hydroxyethyl)piperazine-1-sulfonyl]thiophen-2-yl}-6-methyl-1H-pyridin-2-one hydrochloride]",IC50,2.9 µM
"CCc1cc(-c2ccc(S(=O)(=O)N(C)C3CCN(C)CC3)s2)c(C)[nH]c1=O [Example 77, 5-[5-Ethyl-2-methyl-6-oxo-1,6-dihydropyridin-3-yl]thiophene-2-sulfonic acid methyl-(1-methylpiperidin-4-yl]amide hydrochloride]",IC50,0.28 µM
"CCc1cc(-c2ccc(S(=O)(=O)N3CCN(CCOCCO)CC3)s2)c(C)[nH]c1=O [Example 99, 3-Ethyl-5-(5-{4-[2-(2-hydroxy-ethoxy)-ethyl]-piperazine-1-sulfonyl}-thiophen-2-yl)-6-methyl-1H-pyridin-2-one hydrochloride]",IC50,1.3 µM
